The record followed here is patent US20040131648A1, “Nuclear hormone receptor compounds, products and methods employing same” (The Procter & Gamble Company, priority 2002, published 2004).

For this experiment, the system named is area of the skin in need of beautifying. As to the kind of experiment: Topical administration of beta-ionol analog to human skin. Type of experiment: in vivo. The note with it: daily treatments, after two weeks. As for the experimental part:
A Beta-ionol analog, melafleur alcohol, is administered topically to a human directly onto an area of the skin in need of beautifying.

As for `CC1(C)CCCC2=C1CC(CO)CC2` (stereo not shown) [melafleur alcohol, 2-Naphthalenemethanol, 1,2,3,4,5,6,7,8-octahydro-8,8-dimethyl-], the “health and vitality of treated areas of the skin” value is “increased health and vitality”.
